Legend:
[1] = system: L1210; assay: In vivo activity against L1210 leukemia cells in mice at a dose of 32 mg/kg and expressed as Survival median in days; assay type: functional, Mus musculus
[2] = system: L1210; assay: Antitumor activity (T/C) evaluated against L1210 leukemia from the median survival time of treated mice (T) over that of control mice (C) at a dose of 16 mg/kg; assay type: functional, Mus musculus
[3] = system: L1210; assay: In vivo activity against L1210 leukemia cells in mice at a dose of 32 mg/kg and expressed as percent weight change after 7 days; assay type: functional, Mus musculus
[4] = system: L1210; assay: In vivo activity against L1210 leukemia cells in mice at a dose of 16 mg/kg and expressed as percent weight change after 7 days; assay type: functional, Mus musculus
[5] = system: L1210; assay: Compound was evaluated for the growth inhibition of L1210 cells.; assay type: functional, cell-based; conditions: Mus musculus
[6] = system: L1210; assay: Antitumor activity (T/C) evaluated against L1210 leukemia from the median survival time of treated mice (T) over that of control mice (C) at a dose of 8 mg/kg; assay type: functional, Mus musculus
[7] = biological target: T1, Dihydrofolate reductase (Homo sapiens, UniProt P00374)
T1 sequence (P00374 whole entry): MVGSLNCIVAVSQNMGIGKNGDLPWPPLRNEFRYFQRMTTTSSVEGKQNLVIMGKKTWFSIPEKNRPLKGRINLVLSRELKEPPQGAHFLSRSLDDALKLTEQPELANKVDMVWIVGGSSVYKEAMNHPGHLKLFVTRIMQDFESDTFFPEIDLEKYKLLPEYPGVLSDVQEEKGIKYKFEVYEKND
Description: Inhibition of dihydrofolate reductase (DHFR) from human cells (WI-L2/M4).

[8] = system: L1210; assay: In vivo activity against L1210 leukemia cells in mice at a dose of 8 mg/kg and expressed as percent weight change after 7 days; assay type: functional, Mus musculus
[9] = system: L1210; assay: Antitumor activity (T/C) evaluated against L1210 leukemia from the median survival time of treated mice (T) over that of control mice (C) at a dose of 32 mg/kg; assay type: functional, Mus musculus
[10] = system: L1210; assay: In vivo activity against L1210 leukemia cells in mice at a dose of 8 mg/kg and expressed as Survival median in days; assay type: functional, Mus musculus
[11] = system: L1210; assay: In vivo activity against L1210 leukemia cells in mice at a dose of 16 mg/kg and expressed as Survival range in days; assay type: functional, Mus musculus
[12] = system: L1210; assay: In vivo activity against L1210 leukemia cells in mice at a dose of 32 mg/kg and expressed as Survival range in days; assay type: functional, Mus musculus
[13] = system: L1210; assay: In vivo activity against L1210 leukemia cells in mice at a dose of 8 mg/kg and expressed as Survival range in days; assay type: functional, Mus musculus
[14] = system: L1210; assay: In vivo activity against L1210 leukemia cells in mice at a dose of 16 mg/kg and expressed as Survival median in days; assay type: functional, Mus musculus
[15] = Compound was evaluated for growth inhibition of WI-L2 cells.; assay type: functional, cell-based; conditions: Homo sapiens, WIL2

IC50 [5]	IC50 [7]	SMILES	Survival median [1]	T/C [2]	weight change % [3]	weight change % [4]	T/C [6]	weight change % [8]	T/C [9]	Survival median [10]	Survival range [11]	Survival range [12]	Survival range [13]	Survival median [14]	IC50 [15]
0.0016 µM	0.035 µM	CN(Cc1cnc2nc(N)nc(N)c2n1)c1ccc(C(=O)NC(CCC(=O)Nc2cccc(C(=O)O)c2)C(=O)O)cc1 (stereo not given)	–	–	–	–	–	–	–	–	–	–	–	–	0.0022 µM
0.025 µM	0.032 µM	Nc1nc(N)c2nc(CNc3ccc(C(=O)NC(CCC(=O)Nc4cccc(C(=O)O)c4)C(=O)O)cc3)cnc2n1 (stereo not given)	–	–	–	–	–	–	–	–	–	–	–	–	0.0061 µM

SMILES	IC50 [5]	IC50 [7]	Survival median [1]	T/C [2]	weight change % [3]	weight change % [4]	T/C [6]	weight change % [8]	T/C [9]	Survival median [10]	Survival range [11]	Survival range [12]	Survival range [13]	Survival median [14]	IC50 [15]
CN(Cc1cnc2nc(N)nc(N)c2n1)c1ccc(C(=O)NC(CCC(=O)Nc2cccc(B(O)O)c2)C(=O)O)cc1 (stereo not given)	0.0007 µM	0.03 µM	14 days	150%	5%	4%	138%	8%	175%	11 days	11 days	12 days	9 days	12 days	–

Reference: ChEMBL document CHEMBL1125236 (J Med Chem, 1991)
